Test results from patent publication US20190350907A1, “METHODS AND PHARMACEUTICAL COMPOSITIONS FOR REDUCING CD95- MEDIATED CELL MOTILITY” (INSERM (INSTITUT NATIONAL DE LA SANTÉ ET DE LA RECHERCHE …, priority 2017, published 2019).

Legend:
[1] = system: CD95-mediated Ca2+ signaling pathway in Tfh cells; assay: CD95-mediated Ca2+ response in Tfh cells; type: cell-based, human; conditions: Example 2; signal described for Th17 and circulating Tfh cells
[2] = system: activated PBLs; assay: CD95-mediated cell migration / endothelial transmigration of activated PBLs (Boyden chamber); type: cell-based, human; conditions: result in words
Procedure: FIG. 3. Drugs inhibit CD95-mediated Ca′ response and cell migration. A. Activated PBLs were loaded with FuraPE3-AM (1 μM) and pre-treated for 1 h with non-toxic concentrations of indicated compounds. T-cells were then stimulated with cl-CD95L (100 ng/mL; arrow). Ratio values (R) were normalized to pre-stimulated values (R0) to yield R/R0 values. Data represent means±the SD. B. Left panel: using Boyden chamber assay, cell migration of parental H9 cells and their counterpart lacking CD95 (CD95-KO) was assessed. Right panel: activated PBLs were pre-incubated in the presence or absence of the indicated drugs for 1 hour using non-toxic concentration and the CD95-mediated cell migration was assessed by Boyden chambers. C. Th17 cells were sorted from blood of healthy donors (peripheral blood mononuclear cell). FACS analyses showing the efficiency of Th17 (CCR6^+ CXCR3^−) cell sorting from healthy donors PBMCs. D. Th17 cells were pre-incubated in the presence or absence of the indicated drugs for 1 hour using non-toxic concentration and cell migration was assessed by Boyden chambers. After membrane hydration of Boyden chambers (Millipore, Molsheim, France) containing 8 μm pore membranes, 10^5 cells were added to the top chamber. The bottom chamber was filled with low serum (1%)-containing medium in the presence or absence of cl-CD95L (100 ng/ml). Cells were incubated for 24 h. To quantify invasion, cells were fixed with methanol and stained with Giemsa. Stained cells were then removed from the top-side of the membrane using a cotton-tipped swab and five representative pictures for each insert were taken of the invading cells from the reverse side. For each experiment, invading cells were lysed and absorbance at 560 nm was measured. Membranes (3 μm pore size) of a Boyden chamber were hydrated in sterile D-PBS (Millipore, Molsheim, France). Thereafter, activated T-lymphocytes (10^6) were added to the top chamber on a confluent monolayer of HUVEC in a low serum (1%)-containing medium. The bottom chamber was filled with low serum (1%)-containing medium in presence or absence of 100 ng/ml of cl-CD95L. In experiments using human sera, 500 μl of serum from either healthy donors or SLE patients was added to the lower chamber. Cells were cultured for 24 h at 37° C. in a 5% CO2, humidified incubator. Transmigrated cells were counted in the lower reservoir by flow cytometry using a standard of 2.5×10^4 fluorescent beads (Flow-count, Beckman Coulter).

[3] = system: Th17 cells; assay: CD95-mediated migration / endothelial transmigration of Th17 cells (Boyden chamber); type: cell-based, human; conditions: non-toxic concentrations, 1 hour pre-incubation, Boyden chambers
Procedure: FIG. 3. Drugs inhibit CD95-mediated Ca′ response and cell migration. A. Activated PBLs were loaded with FuraPE3-AM (1 μM) and pre-treated for 1 h with non-toxic concentrations of indicated compounds. T-cells were then stimulated with cl-CD95L (100 ng/mL; arrow). Ratio values (R) were normalized to pre-stimulated values (R0) to yield R/R0 values. Data represent means±the SD. B. Left panel: using Boyden chamber assay, cell migration of parental H9 cells and their counterpart lacking CD95 (CD95-KO) was assessed. Right panel: activated PBLs were pre-incubated in the presence or absence of the indicated drugs for 1 hour using non-toxic concentration and the CD95-mediated cell migration was assessed by Boyden chambers. C. Th17 cells were sorted from blood of healthy donors (peripheral blood mononuclear cell). […] D. Th17 cells were pre-incubated in the presence or absence of the indicated drugs for 1 hour using non-toxic concentration and cell migration was assessed by Boyden chambers. […] To quantify invasion, cells were fixed with methanol and stained with Giemsa. […] For each experiment, invading cells were lysed and absorbance at 560 nm was measured. […] Cell sorting efficiency was evaluated by FACS. […] Transmigrated cells were counted in the lower reservoir by flow cytometry using a standard of 2.5×10^4 fluorescent beads (Flow-count, Beckman Coulter).

[4] = system: Tfh-dependent B cell activation; assay: Tfh-dependent B-cell maturation co-culture (memory B cells with SEB-stimulated Tfh cells, s-CD95L); type: cell-based; conditions: preincubation of Tfh cells

Row | SMILES | effect on sCD95L-induced Ca2+ response [1] | effect on endothelial transmigration of PBLs [2] | effect on endothelial transmigration in Th17 cells [3] | effect on Tfh-dependent B cell activation [4]
1 | CC(C)c1nc(CN(C)C(=O)N[C@H](C(=O)N[C@@H](Cc2ccccc2)C[C@H](O)[C@H](Cc2ccccc2)NC(=O)OCc2cncs2)C(C)C)cs1 [ritonavir, 1,3-thiazol-5-ylmethyl N-[(2S,3S,5S)-3-hydroxy-5-[[(2S)-3-methyl-2-[[methyl-[(2-propan-2-yl-1,3-thiazol-4-yl)methyl]carbamoyl]amino]butanoyl]amino]-1,6-diphenylhexan-2-yl]carbamate] | abrogated | inhibited | abrogated | blocks
2 | O=C(O)c1cc(-c2ccc(F)cc2F)ccc1O [diflunisal, 5-(2,4-difluorophenyl)-2-hydroxybenzoic acid] | – | inhibited | abrogated | –
